The values that follow come from ChEMBL document CHEMBL5550202, “Rationally Designed Highly Potent NKT Cell Agonists with Different Cytokine Selectivity through Hydrogen-Bond Interaction” (J Med Chem, 2024).

The test system of series [1] is Mus musculus. Description: Induction of Th1/2-balanced cytokine response in BALB/c mouse assessed as increase in IFN-gamma secretion in serum at 2.33 nmol, ip administered as single dose in liposomal formulation and measured after 24 hrs by ELISA. In kind it is functional, organism-based. (In an ELISA, binding on a coated surface is turned into a signal by an enzyme label.)

The test system of series [2] is Mus musculus. The experiment in a line: Induction of Th1/2-balanced cytokine response in BALB/c mouse assessed as increase in IFN-gamma secretion in serum at 0.5 ug, ip administered as single dose in liposomal formulation and measured after 24 hrs by ELISA. The format is functional, organism-based. The conditions noted are these: dose 0.5 µg.
Series [3] relates to Mus musculus. The experiment in a line: Induction of Th1/2-balanced cytokine response in BALB/c mouse assessed as increase in IL-4 secretion in serum at 0.5 ug, ip administered as single dose in liposomal formulation and measured after 24 hrs by ELISA. The note with it: dose 0.5 µg. In kind it is functional, organism-based.
Series [4] deals with Mus musculus. Description: Induction of Th1/2-balanced cytokine response in BALB/c mouse assessed as increase in IFN-gamma/IL-4 secretion ratio at 0.5 ug, ip administered as single dose in liposomal formulation and measured after 24 hrs by ELISA. The format is functional, organism-based. The note with it: dose 0.5 µg.
The subject of series [5] is Mus musculus. The experiment in a line: Induction of Th1/2-balanced cytokine response in C57BL/6 mouse assessed as increase in IFN-gamma secretion in serum at 2.33 nmol, ip administered as single dose in liposomal formulation and measured for 48 hrs by ELISA. In kind it is functional, organism-based.
Series [6] deals with Mus musculus. The experiment in a line: Induction of Th1/2-balanced cytokine response in C57BL/6 mouse assessed as increase in IL-4 secretion in serum at 2.33 nmol, ip administered as single dose in liposomal formulation and measured for 48 hrs by ELISA. In kind it is functional, organism-based.
The test system of series [7] is Mus musculus. The experiment in a line: Induction of Th1/2-balanced cytokine response in BALB/c mouse assessed as activation of immune cells by measuring increase in IL-12 release in serum at 2.33 nmol, ip administered as single dose in liposomal formulation and measured at 6 hrs by ELISA. The format is functional, organism-based.
Series [8] in a line: Induction of Th1-specific IFN-gamma secretion in C57BL/6 mouse splenocytes assessed as fold increase in IFN-gamma level in supernatant at 1 nM treated as liposomal formulation and measured after 72 hrs by ELISA relative to alpha-galactosylceramide. The format is functional, Splenocyte.
Series [9] in a line: Induction of Th1-specific IFN-gamma secretion in C57BL/6 mouse splenocytes assessed as fold increase in IFN-gamma level in supernatant at 10 nM treated as liposomal formulation and measured after 72 hrs by ELISA relative to alpha-galactosylceramide. The format is functional, Splenocyte.
The test system of series [10] is Splenocyte. The experiment in a line: Induction of Th2-specific IL-4 secretion in C57BL/6 mouse splenocytes assessed as increase in IL-4 level in supernatant at 1 to 10 nM treated as liposomal formulation and measured after 72 hrs by ELISA. In kind it is functional, cell-based. The conditions noted are these: dose 1-10 nM.
For series [11], the system named is Splenocyte. The experiment in a line: Cytotoxicity against C57BL/6 mouse splenocytes assessed as reduction in cell viability at 10 to 1000 nM treated as liposomal formulation measured after 72 hrs by MTT assay. In kind it is toxicity, cell-based. The conditions noted are these: 1 µM, dose 10-1000 nM. (Formazan colour is commonly taken as a measure of viable cells.)

For series [12], the system named is Splenocyte. Description: Induction of Th1-specific IFN-gamma secretion in C57BL/6 mouse splenocytes assessed as increase in IFN-gamma level in supernatant at 100 nM treated as liposomal formulation preincubated for 30 mins with anti-CD1d monoclonal antibody followed by compound addition and measured after 72 hrs by ELISA. The format is functional, cell-based.

For series [13], the system named is Splenocyte. The experiment in a line: Induction of Th2-specific IL-4 secretion in C57BL/6 mouse splenocytes assessed as increase in IL-4 level in supernatant at 100 nM treated as liposomal formulation preincubated for 30 mins with anti-CD1d monoclonal antibody followed by compound addition and measured after 72 hrs by ELISA. In kind it is functional, cell-based.

Series [14] concerns Splenocyte. The experiment in a line: Ex vivo induction of Natural killer T cell mediated dendritic cell activation in C57BL/6 mouse splenocytes assessed as increase in CD80 expression on CD11c-positive dendritic cells at 2.33 nmol, ip administered as single dose in liposomal formulation measured after 24 hrs by flow cytometry analysis (reference value: 8.4%). In kind it is functional.

For series [15], the system named is Splenocyte. The experiment in a line: Ex vivo induction of Natural killer T cell mediated dendritic cell activation in C57BL/6 mouse splenocytes assessed as increase in CD86 expression on CD11c-positive dendritic cells at 2.33 nmol, ip administered as single dose in liposomal formulation measured after 24 hrs by flow cytometry analysis (reference value: 8.9%). The format is functional. Background: Flow cytometry measures light scatter and fluorescence of single cells or particles in a stream.

Series [16] relates to Splenocyte. The experiment in a line: Ex vivo induction of Natural killer T cell mediated dendritic cell activation in C57BL/6 mouse splenocytes assessed as increase in proportion of IFN-gamma positive natural killer cells at 2.33 nmol, ip administered as single dose in liposomal formulation measured after 24 hrs by flow cytometry analysis (reference value: 2.74%). The format is functional.

The target in series [17] is T1, Antigen-presenting glycoprotein CD1d (Mus musculus) (UniProt P11609+P11610). The experiment in a line: Binding affinity to Cd1D in C57BL/6 mouse BMDC cells assessed as glycolipid presentation by measuring glycolipid/Cd1D complex formation at 100 nM treated as liposomal formulation and measured at 6 to 24 hrs by L363 cell surface staining based flow cytometry analysis. The note with it: time 6-24 hrs.

Series [18] deals with T1, Antigen-presenting glycoprotein CD1d (Mus musculus). Description: Binding affinity to Cd1D in C57BL/6 mouse BMDC cells assessed as glycolipid presentation by measuring glycolipid/Cd1D complex formation at 100 nM treated as liposomal formulation preincubated for 12 hrs and cells further recultured without compound for 2 to 12 hrs by pulse-chase analysis. The format is cell-based.

The target is the same in series [19]. Description: Binding affinity to Cd1D in intact C57BL/6 mouse BMDC cells assessed as glycolipid/Cd1D complex formation by measuring strong staining of cell membrane at 100 nM treated as liposomal formulation and measured after 18 hrs by L363 mAb staining based confocal microscopic analysis.
In series [20] the test system is B16-F10. Description: Antitumor activity against mouse B16-F10 cells implanted in C57BL/6 mouse assessed as reduction in metastatic nodules in lung at 0.58 nmol, ip administered as single dose in liposomal formulation for 1 day followed by tumor inoculation and measured after 3 weeks. The format is functional, organism-based. The conditions noted are these: time 22.0 day.

Series [21] deals with B16-F10. The experiment in a line: Antitumor activity against mouse B16-F10 cells implanted in C57BL/6 mouse assessed as reduction in number of metastatic nodules in lung at 0.58 nmol, ip administered as single dose in liposomal formulation for 1 day followed by tumor inoculation and measured after 3 weeks relative to control. The note with it: time 22 day. Details: scale not given: the % may be the effect or the level left. The format is functional.

In series [22] the test system is B16-F10. Description: Antitumor activity against mouse B16-F10 cells implanted in C57BL/6 mouse assessed as suppression of tumor progression at 0.58 nmol, ip administered as single dose in liposomal formulation for 1 day followed by tumor inoculation and measured after 3 weeks. The conditions noted are these: time 22.0 day. The format is functional, organism-based.

The subject of series [23] is B16-F10. Description: Antitumor activity against mouse B16-F10 cells implanted in C57BL/6 mouse assessed as inhibition of lung metastasis at 0.58 nmol, ip administered as single dose in liposomal formulation for 1 day followed by tumor inoculation and measured after 3 weeks by H and E staining based analysis relative to control. The note with it: time 22 day. In kind it is functional.

In series [24] the test system is Mus musculus. The experiment in a line: Induction of Th1/2-balanced cytokine response in BALB/c mouse assessed as fold increase in IL-4 secretion in serum at 2.33 nmol, ip administered as single dose in liposomal formulation and measured after 2 hrs by ELISA relative to control. In kind it is functional.
The test system of series [25] is Mus musculus. Description: Induction of Th1/2-balanced cytokine response in BALB/c mouse assessed as fold increase in IFN-gamma secretion in serum at 2.33 nmol, ip administered as single dose in liposomal formulation and measured after 24 hrs by ELISA relative to control. The format is functional.
For series [26], the system named is Mus musculus. Description: Induction of Th1/2-balanced cytokine response in BALB/c mouse assessed as fold increase in IL-4 secretion in serum at 2.33 nmol, ip administered as single dose in liposomal formulation and measured after 6 to 48 hrs by ELISA. The conditions noted are these: time 6-48 hrs. In kind it is functional, organism-based.

Activity calls are given as the source filed them. No cut-off for these calls is given here.

For `CCCCCCCCCCCCCC[C@@H](O)[C@@H](O)[C@H](CO[C@H]1O[C@H](CO)[C@H](O)[C@H](O)[C@H]1O)NC(=O)CCCCCCCCCCNS(=O)(=O)CCCCCCCCCCCCC`, the result with Mus musculus [1], in the series on Mus musculus [2], with Mus musculus [3], with Mus musculus [4], in the series on Mus musculus [5] and in the series with Mus musculus [6] was Active. Also, the result (with Mus musculus [7]; in series [17]; in series [18]; in series [19]; with B16-F10 [20]; in the series on B16-F10 [22]) was Active. The “fold change (FC)” value in series [8] worked out at 9.6; in series [9] it was 7.7. Further, the result with Splenocyte [10], in the series on Splenocyte [12] and in the series on Splenocyte [13] was inactive. Further, the Activity result with Splenocyte [11] is reported as “Non-Toxic”; in the series with Splenocyte [14] it was 32.9%; with Splenocyte [15], 44.6%; in the series on Splenocyte [16], 11.2%; in the series with B16-F10 [21] it was 82%. The “inhibition (INH)” value in the series with B16-F10 [23] was about 100%.

For `CCCCCCCCCCCCCC[C@@H](O)[C@@H](O)[C@H](CO[C@H]1O[C@H](CO)[C@H](O)[C@H](O)[C@H]1O)NC(=O)CCCCCCCCCNS(=O)(=O)CCCCCCCCCCCCCC`, in the series with Splenocyte [11], the Activity result is listed as “Non-Toxic”. For the same compound, the outcome in the series on Splenocyte [12] and with Splenocyte [13] was inactive.

As to `CCCCCCCCCCCCCCCCCCCCCCCCCC(=O)N[C@@H](CO[C@H]1O[C@H](CO)[C@H](O)[C@H](O)[C@H]1O)[C@H](O)[C@H](O)CCCCCCCCCCCCCC` [RGI-7000], the Activity result is “Non-Toxic” with Splenocyte [11], 27.6% in the series on Splenocyte [14], 32% with Splenocyte [15] and 6.11% with Splenocyte [16]. Further, the result in the series on Splenocyte [12] and with Splenocyte [13] was inactive. In the series with B16-F10 [20], the result was Active.

`CCCCCCCCCCCCCC[C@@H](O)[C@@H](O)[C@H](CO[C@H]1O[C@H](CO)[C@H](O)[C@H](O)[C@H]1O)NC(=O)CCCCCCCCCCCNS(=O)(=O)CCCCCCCCCCCC`: the “fold change (FC)” value in the series with Mus musculus [24] turned out to be 4.7; with Mus musculus [25], 7; in series [8] it was 6.2; in series [9], 4.7. Besides, the outcome with Mus musculus [2], with Mus musculus [3], in the series on Mus musculus [4], with Mus musculus [5], in the series on Mus musculus [6] and in the series with Mus musculus [7] was Active. In addition, the outcome (in series [17]; in [19]; in the series on B16-F10 [20]) was Active. Besides, the outcome in the series with Splenocyte [10], in the series with Splenocyte [12], with Splenocyte [13] and in the series on Mus musculus [26] was inactive. Besides, the Activity entry is recorded as “Non-Toxic” in the series on Splenocyte [11]; 33.9% in the series on Splenocyte [14]; 46.8% in the series with Splenocyte [15]; 12% in the series on Splenocyte [16]; 66% in the series with B16-F10 [21].

As for `CCCCCCCCCCCCCC[C@@H](O)[C@@H](O)[C@H](CO[C@H]1O[C@H](CO)[C@H](O)[C@H](O)[C@H]1O)NC(=O)CCCCCCCCCCCCNS(=O)(=O)CCCCCCCCCCC`, the Activity result with Splenocyte [11] is listed as “Non-Toxic”. The outcome with Splenocyte [12] and in the series on Splenocyte [13] was inactive.

As to `CCCCCCCCCCCCCC[C@@H](O)[C@@H](O)[C@H](CO[C@H]1O[C@H](CO)[C@H](O)[C@H](O)[C@H]1O)NC(=O)CCCCCCCCCCCCCNS(=O)(=O)CCCCCCCCCC`, the Activity result in the series with Splenocyte [11] is recorded as “Non-Toxic”. Besides, the outcome in the series with Splenocyte [12] and in the series on Splenocyte [13] was inactive.
